Measured values from PMC11148078, “Potent activity of polymyxin B is associated with long-lived super-stoichiometric accumulation mediated by weak-affinity binding to lipid A” (Nature Communications, 2024).
Bridge positions count the residues as written; N and C are the ends. Square brackets hold non-standard residues; d marks the D form. Peptide text beside a SMILES is read from it. * marks the point of attachment. X1 = CC[C@H](C)CCCCC(=O)*; Dab = NCC[C@H](N)C(=O)O

What was measured:
resistant-OMVs = assay: SPR steady-state affinity of reversible binding, resistant-OMVs; set-up: species or system E. coli; conditions: no pre-saturation; n=4 (polymyxin B), n=3 (PMBN), (SD); read-out: Apparent KD
Experimental: An apparent-KD was measured for the reversible saw-tooth binding profile where polymyxin B was titrated over an OMV surface pre-saturated with the stable binding component (Supplementary Information Fig. S11B). […] No pre-saturation was necessary when using resistant-OMVs or PMBN as these lack the stable component (Fig. 2B, D–F).
Binding and kinetic analysis of SPR-OMV assays
To determine the apparent- KD of the reversible binding event of polymyxin B, single-cycle kinetics were performed as described in Materials and Methods. After OMVs were loaded, 5 µM polymyxin B was injected for 360 sec ([…] flow rate) followed by 120 sec dissociations to saturate the stable-binding population prior to the sample injections. The base-to-peak value of each trace was determined from double-referenced traces (reference 1: - OMVs/ + compound channel; reference 2: + OMVs/ - compound) exported from the Biacore S200 evaluation software into PRISM 9 software. The change in RU with each pulse was plotted over the concentration and the KD determined by fitting a non-linear regression, one-site total function with background parameter set to 0 (GraphPad Prism version 9.3.1 for Mac, GraphPad Software, San Diego, California USA, www.graphpad.com). […]

E. coli mcr-1+rifampicin = assay: Rifampicin potentiation / outer membrane permeability, E. coli mcr-1; format: cell-based
Experimental: (§1) Bacterial strains and plasmids are listed in SI Table S5. LB growth media was prepared according to manufacturer’s instructions and supplemented with 0.2% arabinose and carbenicillin (50 μg/mL) for the strains containing pBAD24-mcr1 plasmid. Cultures were started by inoculating 3 ml LB with 1–2 colonies from fresh overnight plates and grown at 37 °C until in log phase. Modified minimal inhibitory concentration (MIC) assays were performed in 96-well round bottom polystyrene plates (Corning) with a final volume of 100 µl in LB supplemented with tween-80 at 0.0005%. […] Polymyxin B sulfate (TCI Co. Ltd), polymyxin B nonapeptide (PMBN) (Sigma), and brevicidine (Genentech) were diluted directly in the assay plates. Bacteria were diluted in LB with tween-80 0.0005% and added to a final OD600 of 0.0005. Growth was measured via OD600 on a SpectraMax M5 plate reader after overnight static growth at 37 °C with humidity.

[1] = test system: E. coli PmrA^G53E+rifampicin; assay: Rifampicin potentiation / outer membrane permeability, E. coli PmrA^G53E; format: cell-based
Experimental: as §1

CC[C@H](C)CCCCC(=O)N[C@@H](CCN)C(=O)N[C@H](C(=O)N[C@@H](CCN)C(=O)N[C@H]1CCNC(=O)[C@H]([C@@H](C)O)NC(=O)[C@H](CCN)NC(=O)[C@H](CCN)NC(=O)[C@H](CC(C)C)NC(=O)[C@@H](Cc2ccccc2)NC(=O)[C@H](CCN)NC1=O)[C@@H](C)O [Polymyxin B] (X1-[Dab]T[Dab][Dab][Dab][dF]L[Dab][Dab]T; lactam 4-C (inferred); N-terminus assumed)
Kd (resistant-OMVs): 273 nM | MIC in presence of rifampicin (E. coli mcr-1+rifampicin): 0.001 µM | outer membrane permeabilization / rifampicin potentiation (E. coli mcr-1+rifampicin): still potentiated the activity of an antibiotic normally excluded by the outer membrane, rifampicin | MIC in presence of rifampicin [1]: 0.001 µM | outer membrane permeabilization / rifampicin potentiation [1]: still potentiated the activity of an antibiotic normally excluded by the outer membrane, rifampicin

CC(C)C[C@@H]1NC(=O)[C@@H](Cc2ccccc2)NC(=O)[C@H](CCN)NC(=O)[C@@H](NC(=O)[C@H](CCN)NC(=O)[C@@H](N)[C@@H](C)O)CCNC(=O)[C@H]([C@@H](C)O)NC(=O)[C@H](CCN)NC(=O)[C@H](CCN)NC1=O [PMBN] (H-T[Dab][Dab][Dab][dF]L[Dab][Dab]T; lactam 3-C)
Kd (resistant-OMVs): 371 nM | MIC in presence of rifampicin (E. coli mcr-1+rifampicin): 2.5 µM | MIC in presence of rifampicin [1]: 20 µM
